# In ChEMBL document CHEMBL1128898, “Sch 51048, a novel broad-spectrum orally active antifungal agent: Synthesis and preliminary structure-activity profile” (1995):
# Experiments:
# Format in all cases: functional
# Details in all cases: inhaled or nasal
# Mus musculus [1] = test: Compound was tested for percentage survival of normal CF-1 Mice infected […] albicans strain C-65 colony forming units at dose 25 mg/Kg
# Mus musculus [2] = test: Compound was tested for percentage survival of immunocompromized CF-1 mice infected by inhalation with Aspergillus flavus strain ND134 at dose 50 mg/Kg
# Mus musculus [3] = test: Compound was tested for percentage survival of normal CF-1 Mice infected […] albicans strain C-65 colony forming units at dose 50 mg/Kg
# Mus musculus [4] = test: Compound was tested for percentage survival of immunocompromized CF-1 mice infected by inhalation with Aspergillus flavus strain ND134 at dose 100 mg/Kg
# Mus musculus [5] = test: Compound was tested for percentage survival of immunocompromized CF-1 mice infected […] albicans strain C-65 colony forming units at dose 50 mg/Kg
# Mus musculus [6] = test: Compound was tested for percentage survival of immunocompromized CF-1 mice infected […] albicans strain C-65 colony forming units at dose 25 mg/Kg
# Mus musculus [7] = test: Compound was tested for percentage survival of immunocompromized CF-1 mice infected by inhalation with Aspergillus fumigatus strain ND142 conidia at dose 100 mg/Kg
# Mus musculus [8] = test: Compound was tested for percentage survival of immunocompromized CF-1 mice infected by inhalation with Aspergillus fumigatus strain ND142 conidia at dose 50 mg/Kg
# Mus musculus [9] = test: Compound was tested for percentage survival of normal CF-1 Mice infected […] albicans strain C-65 colony forming units at dose 10 mg/Kg
# Mus musculus [10] = test: Compound was tested for percentage survival of normal CF-1 Mice infected […] albicans strain C-65 colony forming units at dose 1 mg/kg
# Mus musculus [11] = test: Compound was tested for percentage survival of immunocompromized CF-1 mice infected […] albicans strain C-65 colony forming units at dose 10 mg/Kg
SMILES,survival at 25 mg/kg (Mus musculus [1]) [%],survival at 50 mg/kg (Mus musculus [2]) [%],survival at 50 mg/kg (Mus musculus [3]) [%],survival at 100 mg/kg (Mus musculus [4]) [%],survival at 50 mg/kg (Mus musculus [5]) [%],survival at 25 mg/kg (Mus musculus [6]) [%],survival at 100 mg/kg (Mus musculus [7]) [%],survival at 50 mg/kg (Mus musculus [8]) [%],survival at 10 mg/kg (Mus musculus [9]) [%],survival at 1 mg/kg (Mus musculus [10]) [%],survival at 10 mg/kg (Mus musculus [11]) [%]
O=c1n(-c2ccc(N3CCN(c4ccc(OC[C@@H]5CC[C@@](Cn6cncn6)(c6ccc(F)cc6F)C5)cc4)CC3)cc2)cnn1C1CCCC1,50,40,70,50,,,,,,,
CCC(C)n1ncn(-c2ccc(N3CCN(c4ccc(OC[C@H]5CO[C@](Cn6cncn6)(c6cc(F)cc(F)c6)O5)cc4)CC3)cc2)c1=O (some centres undefined),20,,30,,0,0,,,,,
CC(C)n1ncn(-c2ccc(N3CCN(c4ccc(OC[C@@H]5CC[C@@](Cn6cncn6)(c6ccc(F)cc6F)C5)cc4)CC3)cc2)c1=O,,,,,,,10,10,,,
CCC(CC)n1ncn(-c2ccc(N3CCN(c4ccc(OC[C@@H]5CO[C@@](Cn6cncn6)(c6ccc(F)cc6F)C5)cc4)CC3)cc2)c1=O,100,60,,,50,30,,70,100,80,20
"CCC(C)n1ncn(-c2ccc(N3CCN(c4ccc(OC[C@@H]5CO[C@@](Cn6cncn6)(c6ccc(F)cc6F)C5)cc4)CC3)cc2)c1=O (single isomer, unassigned)",90,80,100,90,40,40,30,10,80,,30
OC(Cn1cncn1)(Cn1cncn1)c1ccc(F)cc1F [FLUCONAZOLE],100,,,,,40,,,90,0,30
CCC(C)n1ncn(-c2ccc(N3CCN(c4ccc(OC[C@H]5CO[C@](Cn6cncn6)(c6ccc(Cl)cc6Cl)O5)cc4)CC3)cc2)c1=O (some centres undefined) [ITRACONAZOLE],0,,40,20,20,0,10,,,,
